In PubChem BioAssay AID270 (DTP/NCI, 2004):
Values joined by “and” are separate entries in the source; they are usually repeats but may differ in a detail not shown here. Identical values can stand only once. Records with an inconclusive call do not appear.

System: BDF1 mice, s.c. Lewis lung carcinoma, T/C %
Assay: NCI In Vivo Anticancer Drug Screen. Data for tumor model Lewis Lung Carcinoma (subcutaneous) in B6D2F1 (BDF1) mice
How it was run: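 The value reflects a ratio in which the treated cohort's survival time or tumour size is compared against mice receiving only vehicle.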

[1] = endpoint: median survival time, dose: 0.78 mg/kg/injection, schedule: Q01DX009 (ip), vehicle: Klucel (hydroxypropylcellulose) (HPC), higher = longer survival
[2] = endpoint: median survival time, dose: 25.0 mg/kg/injection, schedule: Q01DX009 (ip), vehicle: Klucel (hydroxypropylcellulose) (HPC), higher = longer survival
[3] = endpoint: median survival time, dose: 12.5 mg/kg/injection, schedule: Q01DX009 (ip), vehicle: Klucel (hydroxypropylcellulose) (HPC), higher = longer survival

## Nc1nc(N)c2nc(CNc3ccc(C(=O)NC(CCC(=O)O)C(=O)O)cc3)cnc2n1 (stereo not drawn)
endpoint: mean tumor weight, dose: 0.02 mg/kg/injection, schedule: Q01DX011 (ip), vehicle: other, higher = larger tumour
  T/C: 94 % of control
endpoint: mean tumor weight, dose: 0.04 mg/kg/injection, schedule: Q01DX011 (ip), vehicle: other, higher = larger tumour
  T/C: 103 % of control
endpoint: mean tumor weight, dose: 0.08 mg/kg/injection, schedule: Q01DX011 (ip), vehicle: other, higher = larger tumour
  T/C: 97 % of control
endpoint: mean tumor weight, dose: 2.5 micrograms/kg/injection, schedule: Q01DX011 (ip), vehicle: saline, higher = larger tumour
  T/C: 76 % of control
endpoint: mean tumor weight, dose: 5.0 micrograms/kg/injection, schedule: Q01DX011 (ip), vehicle: saline, higher = larger tumour
  T/C: 98 % of control
endpoint: mean tumor weight, dose: 20.0 micrograms/kg/injection, schedule: Q01DX011 (ip), vehicle: saline, higher = larger tumour
  T/C: 100 % of control

## Cc1ccnc(NS(=O)(=O)c2ccc(N=Nc3nc4[nH]c(N)nc(=S)c4[nH]3)cc2)n1
endpoint: median survival time, dose: 0.19 mg/kg/injection, schedule: Q01DX009 (ip), vehicle: Klucel (hydroxypropylcellulose) (HPC), higher = longer survival
  T/C: 106 % of control
endpoint: median survival time, dose: 0.39 mg/kg/injection, schedule: Q01DX009 (ip), vehicle: Klucel (hydroxypropylcellulose) (HPC), higher = longer survival
  T/C: 94 % of control
[1]
  T/C: 97 % of control
endpoint: median survival time, dose: 1.56 mg/kg/injection, schedule: Q01DX009 (ip), vehicle: Klucel (hydroxypropylcellulose) (HPC), higher = longer survival
  T/C: 87 % of control and 103 % of control

## COc1ccccc1-c1cc(=O)c2ccc(OC)c(OC)c2o1
endpoint: mean tumor weight, dose: 18.8 mg/kg/injection, schedule: Q01DX010 (ip), vehicle: saline, higher = larger tumour
  T/C: 99 % of control
endpoint: mean tumor weight, dose: 37.5 mg/kg/injection, schedule: Q01DX010 (ip), vehicle: saline, higher = larger tumour
  T/C: 81 % of control
endpoint: mean tumor weight, dose: 75.0 mg/kg/injection, schedule: Q01DX010 (ip), vehicle: saline, higher = larger tumour
  T/C: 108 % of control
endpoint: mean tumor weight, dose: 150.0 mg/kg/injection, schedule: Q01DX010 (ip), vehicle: saline, higher = larger tumour
  T/C: 76 % of control

## CCCCCCCCSC1=C(Cl)C(=O)C(OC)=C(OC)C1=O
endpoint: median survival time, dose: 12.5 mg/kg/injection, schedule: Q01DX009 (ip), vehicle: other, higher = longer survival
  T/C: 92 % of control

## COc1cc(O)c2c(c1)C(=O)c1cc3c(c(O)c1C2=O)C(O)C(OC)C(C)(O)C3=O (stereo not drawn)
endpoint: median survival time, dose: 12.5 mg/kg/injection, schedule: Q01DX009 (ip), vehicle: water, higher = longer survival
  T/C: 109 % of control
[2]
  T/C: 95 % of control
endpoint: median survival time, dose: 25.0 mg/kg/injection, schedule: Q01DX009 (ip), vehicle: water, higher = longer survival
  T/C: 89 % of control
endpoint: median survival time, dose: 50.0 mg/kg/injection, schedule: Q01DX009 (ip), vehicle: Klucel (hydroxypropylcellulose) (HPC), higher = longer survival
  T/C: 103 % of control
endpoint: median survival time, dose: 50.0 mg/kg/injection, schedule: Q01DX009 (ip), vehicle: water, higher = longer survival
  T/C: 124 % of control
endpoint: median survival time, dose: 100.0 mg/kg/injection, schedule: Q01DX009 (ip), vehicle: Klucel (hydroxypropylcellulose) (HPC), higher = longer survival
  T/C: 100 % of control
endpoint: median survival time, dose: 100.0 mg/kg/injection, schedule: Q01DX009 (ip), vehicle: water, higher = longer survival
  T/C: 103 % of control
endpoint: median survival time, dose: 200.0 mg/kg/injection, schedule: Q01DX009 (ip), vehicle: water, higher = longer survival
  T/C: 90 % of control

## CN(C1=NS(=O)(=O)N=C(N(C)c2ccccc2)O1)c1ccccc1
endpoint: median survival time, dose: 14.37 mg/kg/injection, schedule: Q01DX009 (ip), vehicle: Klucel (hydroxypropylcellulose) (HPC), higher = longer survival
  T/C: 111 % of control
endpoint: median survival time, dose: 28.75 mg/kg/injection, schedule: Q01DX009 (ip), vehicle: Klucel (hydroxypropylcellulose) (HPC), higher = longer survival
  T/C: 104 % of control
endpoint: median survival time, dose: 57.5 mg/kg/injection, schedule: Q01DX009 (ip), vehicle: Klucel (hydroxypropylcellulose) (HPC), higher = longer survival
  T/C: 103 % of control
endpoint: median survival time, dose: 115.0 mg/kg/injection, schedule: Q01DX009 (ip), vehicle: Klucel (hydroxypropylcellulose) (HPC), higher = longer survival
  T/C: 100 % of control
endpoint: median survival time, dose: 230.0 mg/kg/injection, schedule: Q01DX009 (ip), vehicle: Klucel (hydroxypropylcellulose) (HPC), higher = longer survival
  T/C: 96 % of control

## c1ccc2nc3ccccc3c-2cc1
endpoint: mean tumor weight, dose: 125.0 mg/kg/injection, schedule: Q01DX011 (ip), vehicle: saline, higher = larger tumour
  T/C: 90 % of control
endpoint: mean tumor weight, dose: 250.0 mg/kg/injection, schedule: Q01DX011 (ip), vehicle: saline, higher = larger tumour
  T/C: 76 % of control
endpoint: mean tumor weight, dose: 500.0 mg/kg/injection, schedule: Q01DX011 (ip), vehicle: saline, higher = larger tumour
  T/C: 48 % of control
endpoint: mean tumor weight, dose: 1000.0 mg/kg/injection, schedule: Q01DX011 (ip), vehicle: saline, higher = larger tumour
  T/C: 56 % of control

## CS(=O)(=O)c1ccccc1
endpoint: mean tumor weight, dose: 58.0 mg/kg/injection, schedule: Q01DX011 (ip), vehicle: other, higher = larger tumour
  T/C: 99 % of control
endpoint: mean tumor weight, dose: 88.0 mg/kg/injection, schedule: Q01DX011 (ip), vehicle: other, higher = larger tumour
  T/C: 103 % of control
endpoint: mean tumor weight, dose: 133.0 mg/kg/injection, schedule: Q01DX011 (ip), vehicle: other, higher = larger tumour
  T/C: 83 % of control
endpoint: mean tumor weight, dose: 200.0 mg/kg/injection, schedule: Q01DX011 (ip), vehicle: other, higher = larger tumour
  T/C: 79 % of control
endpoint: mean tumor weight, dose: 250.0 mg/kg/injection, schedule: Q01DX011 (ip), vehicle: other, higher = larger tumour
  T/C: 77 % of control
endpoint: mean tumor weight, dose: 500.0 mg/kg/injection, schedule: Q01DX011 (ip), vehicle: other, higher = larger tumour
  T/C: 80 % of control
endpoint: mean tumor weight, dose: 750.0 mg/kg/injection, schedule: Q01DX011 (ip), vehicle: other, higher = larger tumour
  T/C: 76 % of control
endpoint: mean tumor weight, dose: 1000.0 mg/kg/injection, schedule: Q01DX011 (ip), vehicle: other, higher = larger tumour
  T/C: 93 % of control

## c1ccc([B-]2([C+]3CCCCC3)N3CCCCC3C3CCCCN32)cc1 (stereo not drawn)
[3]
  T/C: 89 % of control
[2]
  T/C: 106 % of control

## Nc1cc(Cl)cc(Cl)c1
endpoint: mean tumor weight, dose: 29.0 mg/kg/injection, schedule: Q01DX011 (ip), vehicle: other, higher = larger tumour
  T/C: 90 % of control
endpoint: mean tumor weight, dose: 44.0 mg/kg/injection, schedule: Q01DX011 (ip), vehicle: other, higher = larger tumour
  T/C: 65 % of control
endpoint: mean tumor weight, dose: 66.0 mg/kg/injection, schedule: Q01DX011 (ip), vehicle: other, higher = larger tumour
  T/C: 98 % of control

## FC(F)(F)c1nc2nc(Cl)c(Cl)nc2[nH]1
endpoint: median survival time, dose: 11.25 mg/kg/injection, schedule: Q01DX009 (ip), vehicle: Klucel (hydroxypropylcellulose) (HPC), higher = longer survival
  T/C: 105 % of control
endpoint: median survival time, dose: 22.5 mg/kg/injection, schedule: Q01DX009 (ip), vehicle: Klucel (hydroxypropylcellulose) (HPC), higher = longer survival
  T/C: 101 % of control
endpoint: median survival time, dose: 45.0 mg/kg/injection, schedule: Q01DX009 (ip), vehicle: Klucel (hydroxypropylcellulose) (HPC), higher = longer survival
  T/C: 96 % of control
endpoint: median survival time, dose: 90.0 mg/kg/injection, schedule: Q01DX009 (ip), vehicle: Klucel (hydroxypropylcellulose) (HPC), higher = longer survival
  T/C: 98 % of control

## O=C(NO)c1ccccc1O
endpoint: median survival time, dose: 6.25 mg/kg/injection, schedule: Q01DX009 (ip), vehicle: saline, higher = longer survival
  T/C: 109 % of control
endpoint: median survival time, dose: 12.5 mg/kg/injection, schedule: Q01DX009 (ip), vehicle: saline, higher = longer survival
  T/C: 106 % of control
endpoint: median survival time, dose: 25.0 mg/kg/injection, schedule: Q01DX009 (ip), vehicle: saline, higher = longer survival
  T/C: 108 % of control
endpoint: median survival time, dose: 50.0 mg/kg/injection, schedule: Q01DX009 (ip), vehicle: saline, higher = longer survival
  T/C: 103 % of control
endpoint: median survival time, dose: 400.0 mg/kg/injection, schedule: Q01DX009 (ip), vehicle: saline with Tween-80, higher = longer survival
  T/C: 113 % of control

## NC(=O)c1ncn(C2OC(CO)C(O)C2O)n1 (stereo not drawn)
endpoint: median survival time, dose: 20.0 mg/kg/injection, schedule: Q01DX009 (ip), vehicle: saline, higher = longer survival
  T/C: 100 % of control
endpoint: median survival time, dose: 40.0 mg/kg/injection, schedule: Q01DX009 (ip), vehicle: saline, higher = longer survival
  T/C: 93 % of control and 107 % of control
endpoint: median survival time, dose: 80.0 mg/kg/injection, schedule: Q01DX009 (ip), vehicle: saline, higher = longer survival
  T/C: 97 % of control and 107 % of control
endpoint: median survival time, dose: 160.0 mg/kg/injection, schedule: Q01DX009 (ip), vehicle: saline, higher = longer survival
  T/C: 118 % of control

## NC1=NC(=S)C2N=C(N=Nc3ccc(C(=O)NC(CCC(=O)O)C(=O)O)cc3)N=C2N1 (stereo not drawn)
endpoint: median survival time, dose: 0.2 mg/kg/injection, schedule: Q01DX009 (ip), vehicle: Klucel (hydroxypropylcellulose) (HPC), higher = longer survival
  T/C: 97 % of control
endpoint: median survival time, dose: 0.4 mg/kg/injection, schedule: Q01DX009 (ip), vehicle: Klucel (hydroxypropylcellulose) (HPC), higher = longer survival
  T/C: 93 % of control
[1]
  T/C: 110 % of control

## [I][Hg][CH2]C1OCCOC1[CH2][Hg][I] (stereo not drawn)
endpoint: mean tumor weight, dose: 18.75 mg/kg/injection, schedule: Q01DX011 (ip), vehicle: saline, higher = larger tumour
  T/C: 79 % of control
endpoint: mean tumor weight, dose: 37.5 mg/kg/injection, schedule: Q01DX011 (ip), vehicle: saline, higher = larger tumour
  T/C: 64 % of control
endpoint: mean tumor weight, dose: 75.0 mg/kg/injection, schedule: Q01DX011 (ip), vehicle: saline, higher = larger tumour
  T/C: 54 % of control

## COC12C(COC(N)=O)C3=C(C(=O)C(C)=C(N)C3=O)N1CC1C2N1C (stereo not drawn)
endpoint: median survival time, dose: 2.0 mg/kg/injection, schedule: Q01DX011 (ip), vehicle: other, higher = longer survival
  T/C: 98 % of control
endpoint: median survival time, dose: 4.0 mg/kg/injection, schedule: Q01DX011 (ip), vehicle: other, higher = longer survival
  T/C: 96 % of control

## S=P(NCCNP(=S)(N1CC1)N1CC1)(N1CC1)N1CC1
endpoint: median survival time, dose: 6.25 mg/kg/injection, schedule: Q01DX009 (ip), vehicle: Klucel (hydroxypropylcellulose) (HPC), higher = longer survival
  T/C: 100 % of control
[3]
  T/C: 102 % of control
[2]
  T/C: 104 % of control

## C=C(C)C(=O)OCCN(C)C (tested in a mixture with another compound)
endpoint: median survival time, dose: 50.0 mg/kg/injection, schedule: Q01DX009 (ip), vehicle: other, higher = longer survival
  T/C: 102 % of control
endpoint: median survival time, dose: 100.0 mg/kg/injection, schedule: Q01DX009 (ip), vehicle: other, higher = longer survival
  T/C: 103 % of control
endpoint: median survival time, dose: 200.0 mg/kg/injection, schedule: Q01DX009 (ip), vehicle: other, higher = longer survival
  T/C: 108 % of control
endpoint: median survival time, dose: 400.0 mg/kg/injection, schedule: Q01DX009 (ip), vehicle: other, higher = longer survival
  T/C: 102 % of control
